Patent US20070048247A1, “Deodorizing tablets” (Kimberly-Clark Worldwide, Inc., priority 2005, published 2007)

Key:
[1] = Example 2 urine odor panel ranking (1.6 millimolar); parameters: species or system Human; details: 1.6 millimolar in urine, after 24 hours
From the text: The powders chosen for this example were powders of Acid Blue 25, Acid Blue 45, Acid Blue 129, FD&C Blue No.1 (a triarylmethane), Acid Green 27, Acid Green 41, and Mordant Violet 5 (Alizarin Violet 3R) (commercially available from Sigma-Aldrich Chemical Co., Inc. of St. Louis, Mo.), as well as D&C Green No. 5 (commercially available from Noveon Hilton Davis, Inc. of Cincinnati, Ohio). Human female urine was initially collected and pooled by a nurse on staff at Kimberly-Clark Corporation. […] Powders of the aforementioned quinone compounds were weighed and placed into the mason jars containing 50 milliliters of urine so that the final concentration of the powder was 1.6 millimolar (equivalent to 0.1 wt. %). […] A score of “10” was assigned to the most malodorous jar and a score of “1” was assigned to the least malodorous jar.

[2] = Example 3 urine odor panel ranking; parameters: species or system Human
Procedure: (§1) The effectiveness of various quinone compounds in reducing urine odor was compared. […] Human female urine was initially collected and pooled by a nurse on staff at Kimberly-Clark Corporation. The pooled urine was added to mason jars in 50-milliliter aliquots using an automated pipette aid. […] The mason jars were placed in an incubator overnight at 37° C.
(§2) In addition to ranking the jars from least to most malodorous (on a scale from 1 to 7, with 7 being the most malodors), panelists were also asked to judge whether there were secondary (non-urine) odors present and, if so, the extent that the secondary odors were unpleasant (on a scale from 1 to 5, with 5 being extremely unpleasant).
In this assessment, panelists were given instructions to rank the least malodorous jar as “1” and the most malodorous jar as “10,” remaining free to rank the other jars between 2-9.

[3] = Example 3 secondary (non-urine) odor ranking; parameters: species or system Human; details: individual panelist scores, scale 1 to 5, 5 extremely unpleasant
Procedure: as §1, §2

[4] = Redox potential (redox potentiometry); type: physicochemical
From the text: The ability of quinone compounds to accept electrons from another substance (i.e., be reduced) may be quantified using a technique known as redox potentiometry. Redox potentiometry is a technique that measures (in volts) the affinity of a substance for electrons—its electronegativity—compared with hydrogen (which is set at 0). Substances more strongly electronegative than (i.e., capable of oxidizing) hydrogen have positive redox potentials. Substances less electronegative than (i.e., capable of reducing) hydrogen have negative redox potentials. The greater the difference between the redox potentials of two substances (ΔE), the greater the vigor with which electrons will flow spontaneously from the less positive to the more positive (more electronegative) substance. As is well known in the art, redox potential may be measured using any of a variety of commercially available meters, such as an Oxidation Reduction Potential (ORP) tester commercially available from Hanna Instruments, Inc. of Woonsocket, R. I. The redox potential of the quinone compounds may, for instance, be less than about −50 millivolts (mV), in some embodiments less than about −150 mV, in some embodiments less than about −300 mV, and in some embodiments, less than about −500 mV. Although not always the case, the redox potential may vary based on the number and location of functional groups, such as sulfonic acid, on the quinone structure. For example, 2-sulfonic acid anthraquinone has a redox potential of −380 mV; 2,6-disulfonic acid anthraquinone has a redox potential of −325 mV; and 2,7-disulfonic acid anthraquinone has a redox potential of −313 mV. Likewise, 2-sulfonic acid naphthaquinone has a redox potential of −60 mV. The use of other functional groups may also have an affect on the ultimate redox potential of the compound. For example, Acid Blue 25, which also contains amino- and aramid functional groups, has a redox potential of −605 mV.

[5] = Example 7 urine odor panel ranking (16 millimolar); parameters: species or system Human; details: Example 7 Group C; 16 millimolar in urine; 1 least, 10 most urine malodor
Summary of the method: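 Quinone powders were added at a final 16 millimolar (1 wt. %) to pooled human female urine, and jars were incubated overnight at 37° C. Jars were compared with an untreated urine control jar. The next day panelists scored malodor from 1 (least) to 10 (most).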

[6] = Solubility of powder in urine; details: Example 7; 16 mM in 50 milliliters of urine
[7] = Example 3 first grouping, 8 millimolar in urine, scale 1 to 7, 7 most malodorous
[8] = Example 3 top performers of both groupings, after 24 hours, 1 least, 10 most malodorous

Question: For `Cc1ccc(Nc2cccc3c2C(=O)c2cccc(Nc4ccc(C)cc4S(=O)(=O)[O-])c2C3=O)c(S(=O)(=O)[O-])c1.[Na+].[Na+]`, which “reducing odor (in words)” value [1] is on record?
Answer: Its value is “did not perform as well in reducing odor as D&C Green No. 5”.

Question: What about the “Average Urine Odor Ranking, Avg. Score” value [2, 7] of the same compound?
Answer: The value was 5.8.

Question: And the “Urine Odor Ranking 4 (number of panelists)” value [2, 7]?
Answer: The value was 1.

Question: And the “Urine Odor Ranking 6 (number of panelists)” value [2, 7]?
Answer: The value was 3.

Question: What about the “Urine Odor Ranking 7 (number of panelists)” value [2, 7] of the same compound?
Answer: The value was 1.

Question: What about the “Secondary Odor Ranking” value ([3]; Example 3 first grouping) of the same compound?
Answer: The value was 1.

Question: For `O=C1c2ccc(S(=O)(=O)O)cc2C(=O)c2cc(S(=O)(=O)O)ccc21` [2,7-disulfonic acid anthraquinone], which redox potential [4] is on record?
Answer: The redox potential was −313 mV.

Question: For `O=C1c2ccccc2C(=O)c2cc(S(=O)(=O)O)ccc21` [2-sulfonic acid anthraquinone], which redox potential [4] is on record?
Answer: The redox potential was −380 mV.

Question: With `O=C1C=C(S(=O)(=O)O)C(=O)c2ccccc21` [2-sulfonic acid naphthaquinone] as the compound, how does the redox potential [4] read?
Answer: Its redox potential is −60 mV.

Question: For `Nc1c(S(=O)(=O)[O-])cc(Nc2ccccc2)c2c1C(=O)c1ccccc1C2=O.[Na+]` [Acid Blue 25], which redox potential [4] is on record?
Answer: Its redox potential is −605 mV.

Question: And the “urine odor reduction (in words)” value ([2]; Example 3 first grouping)?
Answer: Its value is “functioned effectively to reduce odor”.

Question: And the “Average Urine Odor Ranking, Avg. Score” value [2, 7]?
Answer: Its value is 3.0.

Question: What about the “Urine Odor Ranking 1 (number of panelists)” value [2, 7] of the same compound?
Answer: The value was 1.

Question: What about the “Urine Odor Ranking 2 (number of panelists)” value [2, 7] of the same compound?
Answer: The value was 1.

Question: And the “Urine Odor Ranking 3 (number of panelists)” value [2, 7]?
Answer: Its value is 1.

Question: And the “Urine Odor Ranking 4 (number of panelists)” value [2, 7]?
Answer: The value was 1.

Question: What about the “Urine Odor Ranking 5 (number of panelists)” value [2, 7] of the same compound?
Answer: The value was 1.

Question: And the “Urine Odor Ranking 4 (number of panelists)” value [2, 8]?
Answer: Its value is 1.

Question: And the “Urine Odor Ranking 7 (number of panelists)” value [2, 8]?
Answer: Its value is 1.

Question: What about the “Urine Odor Ranking 9 (number of panelists)” value [2, 8] of the same compound?
Answer: The value was 2.

Question: What about the “Urine Odor Ranking 10 (number of panelists)” value [2, 8] of the same compound?
Answer: Its value is 1.

Question: What about the “Average Urine Odor Ranking, Avg. Score” value ([2]; Example 3 top performers, after 24 hours, 1 least, 10 most malodorous) of the same compound?
Answer: The value was 6.8.

Question: And the “Average Urine Odor Ranking (with statistical corrections), Avg. Score” value ([2]; Example 3 top performers, after 24 hours, ignoring statistical anomalies)?
Answer: Its value is 8.8.

Question: And the “Secondary Odor Ranking” value ([3]; Example 3 first grouping)?
Answer: The value was 2.

Question: And the “Secondary Odor Ranking” value ([3]; Example 3 top performers, after 24 hours)?
Answer: Its value is 4.

Question: And the “Average Rankings (Group C), Avg. Score” value [5]?
Answer: Its value is 2.4.

Question: And the “Urine Odor Ranking 1 (number of panelists)” value [5]?
Answer: Its value is 3.

Question: What about the “Urine Odor Ranking 4 (number of panelists)” value [5] of the same compound?
Answer: The value was 1.

Question: And the “Urine Odor Ranking 5 (number of panelists)” value [5]?
Answer: Its value is 1.

Question: And the “Soluble?” value [6]?
Answer: Its value is “Mostly”.
